# From patent publication US20130202698A1 (NANJING SANHOME PHARMACEUTICAL CO., LTD., priority 2005, published 2013)
# What was measured:
# [1] = Acute toxicity in mice (LD50); details: mouse, in vivo
# [2] = Phase II clinical trial, oral tablets, departments of obstetrics/gynecology, adverse events; type: in vivo, human; details: human phase II, oral, obstetrics/gynecology
# Experimental: Double-blinded randomized controlled trials were carried out to compare the adverse events of oral levo-ornidazole with racemate treatment groups. Two separate studies were conducted for patients with infections from either department of stomatology or obstetrics/gynecology.
# [3] = system: thiopental-induced hypnosis; assay: Effects on thiopental-induced hypnosis; details: mice, 30 min before sodium thiopental 40 mg/kg IP, Mean ± SD, n=10
# Experimental: A total of 70 mice were divided into 7 groups with 10 mice in each group (half male and half female), and animals were fasted for 8 hours before study. Vehicle control and ornidazole enantiomers were injected intraperitoneal (IP), after 30 minutes, sodium thiopental was then given IP: at 40 mg/kg.
# Levo-, dextro-ornidazole and racemate are studied and compared in 6 treatment groups at 2 different dose levels of 40 and 80 mg/kg. The dose volume is 0.2 mL/10 gram and infusion rate is 0.2 mL/10 seconds.
# [4] = Phase I clinical trials, intravenous, adverse events; type: in vivo; details: human phase I, 1.0 g, I.V., qd × 1d
# Experimental: The clinical trials were conducted to test if the toxicities observed in animal models would correlate with the adverse effects in humans. Double-blinded, randomized controlled human phase I and phase II clinical trials were carried out to compare L-ornidazole with racemate in both intravenous (I.V.) and oral formulations. L-ornidazole caused remarkably less adverse events (related to nervous system) than the racemate in both I.V. and oral routes. Such adverse drug events may cause non-compliance in patients being treated, which could be dangerous for life-threatening infections.
compound,measurement,setting,value
"Cc1ncc([N+](=O)[O-])n1CC(O)CCl (racemic) [Racemic ornidazole, 1-(3-Chloro-2-hydroxypropyl)-2-methyl-5-nitroimidazole]",LD50,[1]; intravenous injection,306 mg/kg
same,LD50,"[1]; ip, intraperitoneal injection",1120 mg/kg
same,LD50,[1]; oral gavage,769 mg/kg
same,"Abdominal pain, # of Patients with AE",[2],1
same,"Abdominal pain, Incidence (%)",[2],0.70%
same,"Appetite drop, # of Patients with AE",[2],2
same,"Appetite drop, Incidence (%)",[2],1.41%
same,"Bitter taste, # of Patients with AE",[2],1
same,"Bitter taste, Incidence (%)",[2],0.70%
same,"Bloating, # of Patients with AE",[2],3
same,"Bloating, Incidence (%)",[2],2.11%
same,"Blurred vision, # of Patients with AE",[2],1
same,"Blurred vision, Incidence (%)",[2],0.70%
same,"Breast tenderness, # of Patients with AE",[2],1
same,"Breast tenderness, Incidence (%)",[2],0.70%
same,"Chest tightness, # of Patients with AE",[2],2
same,"Chest tightness, Incidence (%)",[2],1.41%
same,"Dazzle, # of Patients with AE",[2],1
same,"Dazzle, Incidence (%)",[2],0.70%
same,"Diarrhea, # of Patients with AE",[2],1
same,"Diarrhea, Incidence (%)",[2],0.70%
same,"Dizziness, # of Patients with AE",[2],4
same,"Dizziness, Incidence (%)",[2],2.82%
same,"Dry mouth, # of Patients with AE",[2],1
same,"Dry mouth, Incidence (%)",[2],0.70%
same,"Headache, # of Patients with AE",[2],1
same,"Headache, Incidence (%)",[2],0.70%
same,"Hypersomnia, # of Patients with AE",[2],8
same,"Hypersomnia, Incidence (%)",[2],5.63%
same,"Hypodynamia, # of Patients with AE",[2],2
same,"Hypodynamia, Incidence (%)",[2],1.41%
same,"Nausea, # of Patients with AE",[2],7
same,"Nausea, Incidence (%)",[2],4.93%
same,"Oral malodor, # of Patients with AE",[2],0
same,"Oral malodor, Incidence (%)",[2],0.00%
same,"Rash, # of Patients with AE",[2],0
same,"Rash, Incidence (%)",[2],0.00%
same,"Stomach ache, # of Patients with AE",[2],0
same,"Stomach ache, Incidence (%)",[2],0.00%
same,"Stomach discomfort, # of Patients with AE",[2],4
same,"Stomach discomfort, Incidence (%)",[2],2.82%
same,Total incidence rate of adverse events,[2],19.72%
same,"Vertigo, # of Patients with AE",[2],8
same,"Vertigo, Incidence (%)",[2],5.63%
same,"Vomiting, # of Patients with AE",[2],1
same,"Vomiting, Incidence (%)",[2],0.70%
same,Patients with adverse events (total),[2]; out of 143 (levo) / 142 (racemate) patients,28 patients
same,Sleeping Time,[3]; 40 mg/kg IP,74.0 ± 51.3 min
same,Time to Lose Righting Reflex,[3]; 40 mg/kg IP,2.1 ± 0.3 min
same,Sleeping Time,[3]; 80 mg/kg IP,106.6 ± 99.2 min
same,Time to Lose Righting Reflex,[3]; 80 mg/kg IP,1.9 ± 0.4 min
same,# of Patients Reporting Adverse Events/Total Patients,[4],5/10
